Experimental data: patent publication US10472341B2, “Bicyclic tetrahydrothiazepine derivatives useful for the treatment of neoplastic and/or infectious diseases” (APEIRON BIOLOGICS AG, priority 2015, dated 2019)
Read-outs that look alike come from different tables or passages of the source.

Experiments:
Assay type in all cases: cell-based
[1] = test system: aCD3/aCD28-stimulated human PBMCs; experiment: Cytokine production in aCD3/aCD28 stimulated human PBMCs; conditions: PBMC, 18 h
How it was run: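 Compound effects measured in buffy-coat PBMCs activated 18 h at 37° C by 1 μg/mL each of soluble anti-CD3 (OKT3) and anti-CD28 (28.2), 1e6 cells/mL. Cytokines in harvested supernatants read by MSD or HTRF.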

[2] = test system: aCD3/aCD28-stimulated human CD4+-T-cells; experiment: IL-2 production and activation markers in aCD3/aCD28 stimulated isolated human CD4+-T-cells; conditions: IL-2 production at 3 μM compound
How it was run: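 CD4+ T cells isolated from buffy-coat PBMCs by microbeads were plated in Xvivo medium (1.5*10^5 cells/well) and stimulated with anti-CD3/28 mAbs plus compound. IL-2 measured by ELISA in supernatants at 24 h or 48 h; CD25 and proliferation by flow cytometry, CD69 at 24 h. Activity classes based on IL-2 at 3 μM compound.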

[3] = test system: CD4 T cells; experiment: CD69 expression on aCD3/aCD28 stimulated isolated human CD4 T cells (flow cytometry); conditions: 24 h after TCR stimulation, read-out: Activity Class CD69 (CD4)
Method: (§1) Isolated T cells were plated in Xvivo medium at 1.5*10 ^5 cells per in 96 well culture plates and TCR-stimulated with anti-CD3/28 mAbs in the presence of compound as indicated. Cytokine production was determined at 24 h or 48 h following TCR stimulation in cell culture supernatants using commercially available ELISA kits (BD and eBioscience) as recommended by the manufacturer. T cell proliferation and CD25 expression (CD25-PC5 reagent purchased from Beckman Coulter) was determined by flow cytometry (Beckman-Coulter FC500) and analysed with Kaluza Software. For measurement of CD69 expression, isolated CD4 and CD8 T cells were plated in Xvivo medium at […] per in 96 well culture plates and TCR-stimulated with anti-CD3/28 mAbs in the presence of compound. CD69 expression was determined at 24 h following TCR stimulation by flow cytometry (CD4eF450, CD8APCeF780 and CD69-PC7 reagent purchased from eBioscience) and analysed with Kaluza Software.
(§2) For measurement of CD69 expression, isolated CD4 and CD8 T cells were plated in Xvivo medium at 80000 cells per in 96 well culture plates and TCR-stimulated with anti-CD3/28 mAbs in the presence of compound. CD69 expression was determined at 24 h following TCR stimulation by flow cytometry (CD4eF450, CD8APCeF780 and CD69-PC7 reagent purchased from eBioscience) and analysed with Kaluza Software.

[4] = test system: CD8 T cells; experiment: CD69 expression on aCD3/aCD28 stimulated isolated human CD8 T cells (flow cytometry); conditions: T-cell, 24 h after TCR stimulation, read-out: Activity Class CD69 (CD8)
Method: as §1, §2

[5] = enhancement of IFN-γ production, read-out: Activity Class IFN-γ
[6] = enhancement of IL-2 production, read-out: Activity Class IL-2

Cl.N[C@H]1CS(=O)(=O)c2cc(F)c(C(=O)NCc3ccc(F)cc3)cc2N(Cc2ccc(Cl)cc2)C1=O [Example 68, (3R)-3-amino-5-[(4-chlorophenyl)methyl]-8-fluoro-N-[(4-fluorophenyl)methyl]-1,1,4-trioxo-2,3,4,5-tetrahydro-1λ^6,5-benzothiazepine-7-carboxamide hydrochloride]
EC50 [1, 5]: < 1580 nM
EC50 [1, 6]: < 1580 nM
Activity Class CD4+ [2]: A (IL-2 production at 3 μM compound concentration >10 ng/mL)
EC50 [3]: < 1580 nM
EC50 [4]: < 1580 nM

CCCCNC(=O)c1cc2c(cc1F)S(=O)(=O)C[C@H](N)C(=O)N2Cc1ccc(Cl)cc1.Cl [Example 69, (3R)-3-amino-N-butyl-5-[(4-chlorophenyl)methyl]-8-fluoro-1,1,4-trioxo-2,3,4,5-tetrahydro-1λ^6,5-benzothiazepine-7-carboxamide hydrochloride]
EC50 [1, 5]: < 1580 nM
EC50 [1, 6]: < 1580 nM
Activity Class CD4+ [2]: A (IL-2 production at 3 μM compound concentration >10 ng/mL)
EC50 [3]: < 1580 nM
EC50 [4]: < 1580 nM

Cl.N[C@H]1CS(=O)(=O)c2cc(F)c(C(=O)NCC3CCOCC3)cc2N(Cc2ccc(Cl)cc2)C1=O [Example 71, (3R)-3-amino-5-[(4-chlorophenyl)methyl]-8-fluoro-N-(oxan-4-ylmethyl)-1,1,4-trioxo-2,3,4,5-tetrahydro-1λ^6,5-benzothiazepine-7-carboxamide hydrochloride]
EC50 [1, 5]: < 1580 nM
EC50 [1, 6]: < 1580 nM
Activity Class CD4+ [2]: B (IL-2 production at 3 μM compound concentration between 2-10 ng/mL)
EC50 [3]: < 1580 nM
EC50 [4]: < 1580 nM

Cl.N[C@H]1CS(=O)(=O)c2cc(F)c(C(=O)NCC3CCOCC3)cc2N(Cc2ccc(OC(F)(F)F)cc2)C1=O [Example 72, (3R)-3-amino-8-fluoro-N-(oxan-4-ylmethyl)-1,1,4-trioxo-5-{[4-(trifluoromethoxy)-phenyl]methyl}-2,3,4,5-tetrahydro-1λ^6,5-benzothiazepine-7-carboxamide hydrochloride]
EC50 [1, 5]: < 1580 nM
EC50 [1, 6]: < 1580 nM
Activity Class CD4+ [2]: A (IL-2 production at 3 μM compound concentration >10 ng/mL)
EC50 [3]: < 1580 nM
EC50 [4]: 1580 to 5010 nM

Cl.N[C@H]1CS(=O)(=O)c2cc(F)c(C(=O)NCCCC(F)(F)F)cc2N(Cc2ccc(OC(F)(F)F)cc2)C1=O [Example 73, (3R)-3-amino-8-fluoro-1,1,4-trioxo-N-(4,4,4-trifluorobutyl)-5-{[4-(trifluoromethoxy)-phenyl]methyl}-2,3,4,5-tetrahydro-1λ^6,5-benzothiazepine-7-carboxamide hydrochloride]
EC50 [1, 5]: < 1580 nM
EC50 [1, 6]: < 1580 nM
Activity Class CD4+ [2]: A (IL-2 production at 3 μM compound concentration >10 ng/mL)
EC50 [3]: < 1580 nM
EC50 [4]: < 1580 nM

Cl.N[C@H]1CS(=O)(=O)c2cc(F)c(C(=O)NC3CCC(F)(F)C3)cc2N(Cc2ccc(Cl)cc2)C1=O (stereo partly drawn) [Example 105, (3R)-3-amino-5-[(4-chlorophenyl)methyl]-N-(3,3-difluorocyclopentyl)-8-fluoro-1,1,4-trioxo-2,3,4,5-tetrahydro-1λ^6,5-benzothiazepine-7-carboxamide hydrochloride]
EC50 [1, 5]: < 1580 nM
EC50 [1, 6]: < 1580 nM
Activity Class CD4+ [2]: A (IL-2 production at 3 μM compound concentration >10 ng/mL)
EC50 [3]: < 1580 nM
EC50 [4]: < 1580 nM

N[C@H]1CS(=O)(=O)c2cc(Cl)c(C(=O)NCCCC(F)(F)F)cc2N(Cc2ccc(Cl)cc2)C1=O [Example 163, (3R)-3-amino-8-chloro-5-[(4-chlorophenyl)methyl]-1,1,4-trioxo-N-(4,4,4-trifluorobutyl)-2,3,4,5-tetrahydro-1λ^6,5-benzothiazepine-7-carboxamide]
EC50 [1, 5]: < 1580 nM
EC50 [1, 6]: 1580 to 5010 nM
EC50 [3]: < 1580 nM
EC50 [4]: < 1580 nM

N[C@H]1CS(=O)(=O)c2ccc(C(=O)NCC3(F)CCOCC3)cc2N(Cc2ccc(Cl)cc2)C1=O [Example 165, (3R)-3-amino-5-[(4-chlorophenyl)methyl]-N-[(4-fluorooxan-4-yl)methyl]-1,1,4-trioxo-2,3,4,5-tetrahydro-1λ^6,5-benzothiazepine-7-carboxamide]
EC50 [1, 5]: < 1580 nM
EC50 [1, 6]: 1580 to 5010 nM
EC50 [3]: < 1580 nM
EC50 [4]: < 1580 nM

N[C@H]1CS(=O)(=O)c2ccc(C(=O)N[C@@H]3CCC(F)(F)C3)cc2N(Cc2ccc(Cl)cc2)C1=O [Example 169, (3R)-3-amino-5-[(4-chlorophenyl)methyl]-N-[(1R)-3,3-difluorocyclopentyl]-1,1,4-trioxo-2,3,4,5-tetrahydro-1λ^6,5-benzothiazepine-7-carboxamide]
EC50 [1, 5]: < 1580 nM
EC50 [1, 6]: < 1580 nM
EC50 [3]: < 1580 nM
EC50 [4]: < 1580 nM

N[C@H]1CS(=O)(=O)c2ccc(C(=O)NCC3CC(F)(F)C3)cc2N(Cc2ccc(Cl)cc2)C1=O [Example 171, (3R)-3-amino-5-[(4-chlorophenyl)methyl]-N-[(3,3-difluorocyclobutyl)methyl]-1,1,4-trioxo-2,3,4,5-tetrahydro-1λ^6,5-benzothiazepine-7-carboxamide]
EC50 [1, 5]: 1580 to 5010 nM
EC50 [1, 6]: < 1580 nM
EC50 [3]: < 1580 nM
EC50 [4]: < 1580 nM

N[C@H]1CS(=O)(=O)c2cc(Cl)c(C(=O)N[C@@H]3CC3(F)F)cc2N(Cc2ccc(Cl)cc2)C1=O [Example 175, (3R)-3-amino-8-chloro-5-[(4-chlorophenyl)methyl]-N-[(1R)-2,2-difluorocyclopropyl]-1,1,4-trioxo-2,3,4,5-tetrahydro-1λ^6,5-benzothiazepine-7-carboxamide]
EC50 [1, 5]: 1580 to 5010 nM
EC50 [1, 6]: > 5010 nM
EC50 [3]: < 1580 nM
EC50 [4]: 1580 to 5010 nM

N[C@H]1CS(=O)(=O)c2ccc(C(=O)NCCN3CCOCC3)cc2N(Cc2ccc(Cl)cc2)C1=O [Example 176, (3R)-3-amino-5-[(4-chlorophenyl)methyl]-N-[2-(morpholin-4-yl)ethyl]-1,1,4-trioxo-2,3,4,5-tetrahydro-1λ^6,5-benzothiazepine-7-carboxamide]
EC50 [1, 5]: > 5010 nM
EC50 [1, 6]: > 5010 nM
EC50 [3]: > 5010 nM
EC50 [4]: > 5010 nM

C#CCOc1ccc(CNC(=O)c2cc3c(cc2F)S(=O)(=O)C[C@H](N)C(=O)N3Cc2ccc(Cl)cc2)cc1 [Example 178, (3R)-3-amino-5-[(4-chlorophenyl)methyl]-8-fluoro-1,1,4-trioxo-N-{[4-(prop-2-yn-1-yloxy)phenyl]methyl}-2,3,4,5-tetrahydro-1λ^6,5-benzothiazepine-7-carboxamide]
EC50 [1, 5]: < 1580 nM
EC50 [1, 6]: < 1580 nM
EC50 [3]: < 1580 nM
EC50 [4]: < 1580 nM

N[C@H]1CS(=O)(=O)c2ccc(C(=O)N[C@@H]3CC3(F)F)cc2N(Cc2ccc(C(F)(F)F)cc2)C1=O [Example 179, (3R)-3-amino-N-[(1R)-2,2-difluorocyclopropyl]-1,1,4-trioxo-5-{[4-(trifluoromethyl)phenyl]methyl}-2,3,4,5-tetrahydro-1λ^6,5-benzothiazepine-7-carboxamide]
EC50 [1, 5]: 1580 to 5010 nM
EC50 [1, 6]: < 1580 nM
EC50 [3]: < 1580 nM
EC50 [4]: < 1580 nM

N[C@H]1CS(=O)(=O)c2ccc(C(=O)NC3CC3(F)F)cc2N(Cc2ccc(Br)cc2)C1=O (stereo partly drawn) [Example 180, (3R)-3-amino-5-[(4-bromophenyl)methyl]-N-(2,2-difluorocyclopropyl)-1,1,4-trioxo-2,3,4,5-tetrahydro-1λ^6,5-benzothiazepine-7-carboxamide]
EC50 [1, 5]: < 1580 nM
EC50 [1, 6]: < 1580 nM
EC50 [3]: < 1580 nM
EC50 [4]: < 1580 nM
